Measured values from patent publication US20050124498A1, “Halobenzyl substituted phenylaceto esters and amides and use thereof for prevention of harmful organisms” (priority 2002, published 2005).

Legend:
Phytophthora infestans = experiment: whole plant or invertebrate; assay type: in vivo; details: in Solanum lycopersicum, 72 h, read-out: efficacy
[1] = test system: apple mildew pathogen Podosphaera leucotricha; experiment: Podosphaera test (apple)/protective; assay type: in vivo; details: 240 h, protective, application rate 100 g/ha, evaluation 10 days after inoculation, read-out: efficacy
Procedure: (§1) Podosphaera test (apple)/protective [table] To produce a suitable preparation of active compound, 1 part by weight of active compound is mixed with the stated amounts of solvent and emulsifier, and the concentrate is diluted with water to the desired concentration. To test for protective activity, young plants are sprayed with the preparation of active compound at the stated application rate. After the spray coating has dried on, the plants are inoculated with an aqueous spore suspension of the apple mildew pathogen Podosphaera leucotricha. The plants are then placed in a greenhouse at about 23° C. and about 70% relative atmospheric humidity.

Sphaerotheca fuliginea = experiment: Sphaerotheca test (cucumber)/protective; assay type: in vivo; details: Podosphaera fuliginea, 168 h, protective, application rate 100 g/ha, evaluation 7 days after inoculation, read-out: efficacy
Procedure: as §1, with “Sphaerotheca” for “Podosphaera”, “(cucumber)/protective” for “(apple)/protective”, “Sphaerotheca fuliginea.” for “the apple mildew pathogen Podosphaera leucotricha.”

[2] = test system: apple scab pathogen Venturia inaequalis; experiment: Venturia test (apple)/protective; assay type: in vivo; details: 240 h, protective, application rate 100 g/ha, evaluation 10 days after inoculation, read-out: efficacy
Procedure: Venturia test (apple)/protective […] To produce a suitable preparation of active compound, 1 part by weight of active compound is mixed with the stated amounts of solvent and emulsifier, and the concentrate is diluted with water to the desired concentration. To test for protective activity, young plants are sprayed with the preparation of active compound at the stated application rate. After the spray coating has dried on, the plants are inoculated with an aqueous conidia suspension of the apple scab pathogen Venturia inaequalis and then remain in an incubation cabin at about 20° C. and 100% relative atmospheric humidity for 1 day. The plants are then placed in a greenhouse at about 21° C. and a relative atmospheric humidity of about 90%.

Leptosphaeria nodorum = Leptosphaeria nodorum test (wheat)/protective; assay type: in vivo; details: Parastagonospora nodorum, 240 h, protective, application rate 500 g/ha, evaluation 10 days after inoculation, read-out: efficacy
Procedure: Leptosphaeria nodorum test (wheat)/protective [table] To produce a suitable preparation of active compound, 1 part by weight of active compound is mixed with the stated amounts of solvent and emulsifier, and the concentrate is diluted with water to the desired concentration. To test for protective activity, young plants are sprayed with the preparation of active compound at the stated application rate. After the spray coating has dried on, the plants are sprayed with a spore suspension of Leptosphaeria nodorum. The plants remain in an incubation cabin at 20° C. and 100% relative atmospheric humidity for 48 hours. The plants are placed in a greenhouse at a temperature of about 15° C. and a relative atmospheric humidity of 80%.

[3] = test system: Erysiphe graminis f.sp. hordei; experiment: Erysiphe test (barley)/protective; assay type: in vivo; details: Blumeria graminis, 168 h, protective, application rate 500 g/ha, evaluation 7 days after inoculation, read-out: efficacy
Procedure: Erysiphe test (barley)/protective [table] To produce a suitable preparation of active compound, 1 part by weight of active compound is mixed with the stated amounts of solvent and emulsifier, and the concentrate is diluted with water to the desired concentration. To test for protective activity, young plants are sprayed with the preparation of active compound at the stated application rate. After the spray coating has dried on, the plants are dusted with spores of Erysiphe graminis f.sp. hordei. The plants are placed in a greenhouse at a temperature of about 20° C. and a relative atmospheric humidity of about 80% to promote the development of mildew pustules.

Structure (SMILES): CNC(=O)/C(=N/OC)c1c(F)cccc1Oc1ncnc(Oc2ccccc2Cl)c1F [Example 2, 2-{2-[6-(2-chlorophenoxy)-5-fluoropyrimidin-4-yloxy]-6-fluorophenyl}-2-methoxyimino-N-methylacetamide]
- pest or weed control at 100 g/ha (Phytophthora infestans): ≥ 86%
- pest or weed control at 100 g/ha [1]: ≥ 82%
- pest or weed control at 100 g/ha (Sphaerotheca fuliginea): ≥ 98%
- pest or weed control at 100 g/ha [2]: ≥ 97%
- pest or weed control at 500 g/ha (Leptosphaeria nodorum): ≥ 98%
- chromatographic logP (physchem; pH 2, log P (pH 2)): 3.1

Structure (SMILES): CO/N=C(/C(=O)OC)c1c(F)cccc1COc1ccccc1C [Example 8, methyl (2-fluoro-6-o-tolyloxymethylphenyl)methoxyiminoacetate]
- pest or weed control at 100 g/ha [1]: ≥ 82%
- pest or weed control at 100 g/ha (Sphaerotheca fuliginea): ≥ 98%
- pest or weed control at 100 g/ha [2]: ≥ 97%
- pest or weed control at 500 g/ha [3]: ≥ 98%
- chromatographic logP (physchem; pH 2, log P (pH 2)): 3.65

Structure (SMILES): CO/N=C(/C(=O)OC)c1c(F)cccc1Oc1ncnc(Oc2cccc(Cl)c2Cl)c1F [Example 12]
- pest or weed control at 100 g/ha (Phytophthora infestans): ≥ 86%
- pest or weed control at 100 g/ha [1]: ≥ 82%
- pest or weed control at 100 g/ha (Sphaerotheca fuliginea): ≥ 98%
- pest or weed control at 100 g/ha [2]: ≥ 97%
- pest or weed control at 500 g/ha [3]: ≥ 98%
- chromatographic logP (physchem; logP): 4.16

Structure (SMILES): CO/N=C(/C(=O)OC)c1c(F)cccc1Oc1ncnc(Oc2ccccc2Cl)c1F [Example 14]
- pest or weed control at 100 g/ha (Phytophthora infestans): ≥ 86%
- pest or weed control at 100 g/ha [1]: ≥ 82%
- pest or weed control at 100 g/ha (Sphaerotheca fuliginea): ≥ 98%
- pest or weed control at 100 g/ha [2]: ≥ 97%
- pest or weed control at 500 g/ha [3]: ≥ 98%
- chromatographic logP (physchem; logP): 3.73

Structure (SMILES): CNC(=O)/C(=N/OC)c1ccc(F)cc1Oc1ncnc(Oc2ccccc2F)c1F [Example 16]
- pest or weed control at 500 g/ha (Leptosphaeria nodorum): ≥ 98%
- chromatographic logP (physchem; logP): 3.03

Structure (SMILES): CNC(=O)/C(=N/OC)c1ccc(F)cc1Oc1ncnc(Oc2ccc(Cl)cc2)c1F [Example 22]
- pest or weed control at 500 g/ha (Leptosphaeria nodorum): ≥ 98%
- chromatographic logP (physchem; logP): 3.32

Structure (SMILES): CNC(=O)/C(=N/OC)c1ccc(F)cc1Oc1ncnc(Oc2ccccc2C(F)(F)F)c1F [Example 31]
- pest or weed control at 100 g/ha (Phytophthora infestans): ≥ 86%
- pest or weed control at 100 g/ha [1]: ≥ 82%
- pest or weed control at 100 g/ha (Sphaerotheca fuliginea): ≥ 98%
- pest or weed control at 100 g/ha [2]: ≥ 97%
- pest or weed control at 500 g/ha (Leptosphaeria nodorum): ≥ 98%
- chromatographic logP (physchem; logP): 3.26

Structure (SMILES): CNC(=O)/C(=N/OC)c1c(F)cccc1Oc1ncnc(Oc2cccc(Cl)c2C)c1F [Example 45]
- pest or weed control at 100 g/ha (Phytophthora infestans): ≥ 86%
- pest or weed control at 100 g/ha [1]: ≥ 82%
- pest or weed control at 100 g/ha (Sphaerotheca fuliginea): ≥ 98%
- pest or weed control at 100 g/ha [2]: ≥ 97%
- pest or weed control at 500 g/ha (Leptosphaeria nodorum): ≥ 98%
- chromatographic logP (physchem; logP): 3.6

Structure (SMILES): CNC(=O)/C(=N/OC)c1c(F)cccc1Oc1cc(Oc2cccc(Cl)c2Cl)ncn1 [Example 46]
- pest or weed control at 100 g/ha (Phytophthora infestans): ≥ 86%
- pest or weed control at 100 g/ha [1]: ≥ 82%
- pest or weed control at 100 g/ha (Sphaerotheca fuliginea): ≥ 98%
- pest or weed control at 100 g/ha [2]: ≥ 97%
- pest or weed control at 500 g/ha (Leptosphaeria nodorum): ≥ 98%
- chromatographic logP (physchem; logP): 3.23

Structure (SMILES): CNC(=O)/C(=N/OC)c1c(F)cccc1Oc1cc(Oc2ccccc2Cl)ncn1 [Example 47]
- pest or weed control at 100 g/ha (Phytophthora infestans): ≥ 86%
- pest or weed control at 100 g/ha [1]: ≥ 82%
- pest or weed control at 100 g/ha (Sphaerotheca fuliginea): ≥ 98%
- pest or weed control at 100 g/ha [2]: ≥ 97%
- pest or weed control at 500 g/ha (Leptosphaeria nodorum): ≥ 98%
- chromatographic logP (physchem; logP): 2.79

Structure (SMILES): CNC(=O)/C(=N/OC)c1c(F)cccc1Oc1ncnc(Oc2cccc(Cl)c2Cl)c1F [Example 48]
- pest or weed control at 100 g/ha (Phytophthora infestans): ≥ 86%
- pest or weed control at 100 g/ha [1]: ≥ 82%
- pest or weed control at 100 g/ha (Sphaerotheca fuliginea): ≥ 98%
- pest or weed control at 100 g/ha [2]: ≥ 97%
- pest or weed control at 500 g/ha (Leptosphaeria nodorum): ≥ 98%
- chromatographic logP (physchem; logP): 3.5

Structure (SMILES): CO/N=C(/C(=O)OC)c1c(F)cccc1CO/N=C(\C)c1cccc(C(F)(F)F)c1 [Example 50]
- pest or weed control at 100 g/ha (Phytophthora infestans): ≥ 86%
- pest or weed control at 100 g/ha [1]: ≥ 82%
- pest or weed control at 100 g/ha (Sphaerotheca fuliginea): ≥ 98%
- pest or weed control at 100 g/ha [2]: ≥ 97%
- pest or weed control at 500 g/ha [3]: ≥ 98%
- chromatographic logP (physchem; logP): 4.27

Structure (SMILES): CNC(=O)/C(=N/OC)c1c(F)cccc1CO/N=C(\C)c1cccc(C(F)(F)F)c1 [Example 51]
- pest or weed control at 100 g/ha (Phytophthora infestans): ≥ 86%
- pest or weed control at 100 g/ha [1]: ≥ 82%
- pest or weed control at 100 g/ha (Sphaerotheca fuliginea): ≥ 98%
- pest or weed control at 100 g/ha [2]: ≥ 97%
- pest or weed control at 500 g/ha [3]: ≥ 98%
- chromatographic logP (physchem; logP): 3.71
